Tests used:
Aedes albopictus [1] = experiment: Mosquito landing rate using human forearm; format: in vivo; conditions: 4 cm x 5 cm test site, 5 mg (0.25 mg/cm^2), about 50 mosquitoes, 28° C., 70% RH
Procedure: (4) Evaluation of Mosquito Landing Rate Using Human Forearm
The repellent effect of the pest repellent on human forearm was evaluated in terms of a mosquito landing rate.
(4-1) Preparation of Aedes albopictus
Female adults of Aedes albopictus were purchased from Mostop Inc. The adults were bred in a room at 28° C. and a relative humidity of 70% RH with a 12-hour light/dark cycle after delivery and appropriately used for tests. During breeding of mosquitoes, a 3% by mass sucrose aqueous solution was given as a feed. In order to facilitate the induction to the forearm, before the test, the food was changed to water, and the mosquitoes were fasted for 12 hours or more.
(4-2) Calculation of Landing Rate
The forearm was washed with a body wash (Biore u, manufactured by Kao Corporation), and water droplets were wiped off with a paper towel, followed by performing acclimatization for 10 minutes at room temperature. Thereafter, a rubber glove (Singer Latex Long Glove M, manufactured by Utsunomiya Seisakusho Co., Ltd.) covering up to the elbow was put on the arm to be measured. The mosquito cannot bite through the rubber glove.
The rubber glove was cut off with scissors to expose a test site of 4 cm×5 cm toward the inside of the forearm. The area around the opening of the rubber glove is reinforced with a pressure-sensitive adhesive tape. Then, the resultant was moved to a constant temperature and constant humidity room (28° C., relative humidity: 70%), followed by performing acclimatization for 3 minutes. 5 mg (0.25 mg/cm^2) of the repellent was applied on the test site with a finger wearing the rubber glove, and immediately thereafter, the arm was inserted into a test box (Bug Dorm-1, manufactured by MegaView Science Co., Ltd., 30 cm×30 cm×30 cm). Approximately 50 test mosquitoes are released in this test box. The mosquito stays on the skin and then begins to bite by placing a needle on the skin. In order to prevent blood sucking into the forearm, mosquitoes are removed by using an inset suction pipe passed through a hole into which the arm is inserted just before starting biting. The measurement was terminated at the time when the total number of mosquitoes that succeeded in landing (reached just before the start of biting) and mosquitoes that touched the skin but escaped without landing reached 15. […] The mosquito landing rate was calculated by the following equation. […]
Each of the liquid oily components shown in Table 4 was applied onto the test site of the human forearm at a coverage of 0.25 mg/cm^2, and the mosquito landing rate on the applied surface of the forearm was calculated.

Aedes albopictus [2] = experiment: Mosquito landing rate on replica skin substrate applied with repellent; format: in vivo; conditions: for Landing rate (at 0.25 mg/cm^2): coverage 0.25 mg/cm^2 on polyurethane replica skin substrate
Procedure: (3) Mosquito Landing Rate
The repellent effect of the pest repellent was evaluated in terms of a mosquito landing rate.
(3-1) Preparation of Aedes albopictus
Female adults of Aedes albopictus were purchased from Mostop Inc. The adults were bred in a room at 28° C. and a relative humidity of 70% RH with a 12-hour light/dark cycle after delivery and appropriately used for tests. During breeding of mosquitoes, a 3% by mass sucrose aqueous solution was given as a feed.
(3-3) Calculation of Mosquito Landing Rate
The mosquito landing rate was determined by applying a repellent onto the aforementioned replica skin substrate in the manner as mentioned below to form a substrate surface, counting the number of mosquitoes landed on the substrate surface, and calculating the mosquito landing rate on the applied surface. This replica skin substrate is a disk having a diameter of 5 cm. Here, the term “landed” means that the mosquito stayed on the replica skin substrate for at least one second.
Four replica skin substrates were prepared, two of which were uniformly applied with a repellent with a fingertip wearing a rubber glove, and the other two were not applied with the repellent. Thereafter, the four substrates were vertically mounted in a glass box having a length, a width, and a height of about 6 cm on each side, such that the applied surface was located inside the boxy. This box has a circular hole with a diameter of 4 cm in the vertical and horizontal directions when viewed from the top, and by setting the aforementioned substrate, a part of the inner wall surface of the box can be made as the substrate surface. Two adjacent surfaces among the four surfaces of the inner wall of the box were set as substrates onto which the repellent was applied.
Four mosquitoes were enclosed in the glass-made box, and a shock was applied to force the mosquitoes to fly, thereby recording on what surface they first landed within 10 seconds. This was repeated 20 times, and the mosquito landing rate on the applied surface was calculated by the following equation.
Mosquito landing rate on applied surface (%)={(Number of mosquitoes landed on two surfaces of replica skin substrates applied with repellent)/(Number of mosquitoes landed on any of four surfaces of replica skin substrates)}×100
In the case of repeating the aforementioned test, fresh unused mosquitoes were used for every test, and the landing rate was calculated as an average.
It is expressed that as the landing rate is lower, the staying of mosquitoes can be suppressed, and the repellent effect is excellent.
In Comparative Example 2, a frosted glass-made substrate (Tempax #240, manufactured by Cosmode Co., Ltd.) was used in place of the replica skin substrate.
The liquid oily component shown in Table 1 was prepared, and the liquid oily component shown in Table 2 was uniformly applied onto the aforementioned replica skin substrate at a coverage of 0.5 mg/cm^2, and the mosquito landing rate was calculated.
In Example 1, each of the liquid oily components shown in Table 3 was uniformly applied onto the replica shin substrate at a coverage of 0.25 mg/cm^2, and the mosquito landing rate was calculated.

[3] = Measurement of viscosity (B-type rotational viscometer); format: physicochemical; conditions: rotor M2 (12 or 6 rpm) or L adapter (30 rpm) as listed per sample
Procedure: (2) Measurement of Viscosity
Viscometer TVB-10, manufactured by […] Co., Ltd. was used as a B-type rotational viscometer according to JIS K7117-1:1999. As to components to be measured, a viscosity value greatly differs for every sample, and therefore, it is difficult to accurately measure all components under a single measurement condition. Then, the measurement was performed using two types of rotors. The viscosity was first measured at a rotational speed of 12 rpm using a rotor M2 in an environment at 23° C. At this time, the component having a viscosity of 2,500 mPa·s or more was again measured at a rotational speed of 6 rpm, to obtain the viscosity value.
On the other hand, the component having a viscosity of 20 mPa·s or less was again measured at a rotational speed of 30 rpm using an L adapter that is a rotor for low viscosity in an environment of 23° C., to obtain the viscosity value.

[4] = Measurement of surface tension (Wilhelmy method, Tensiometer K100); format: physicochemical; conditions: static surface tension, platinum plate
Procedure: (1) Measurement of Surface Tension
An automatic surface tensiometer: Tensiometer K100 (manufactured by KRUSS GmbH) was used to measure the static surface tension by the Wilhelmy method using a platinum plate in an environment at 25° C.

pests = conditions: content in the pest repellent composition; existing pest repellents; cited from earlier work
[5] = coverage 0.5 mg/cm^2 on polyurethane replica skin substrate, stay of at least 1 second counts as landed, lower = better repellent effect
[6] = lower = better repellent effect

Compound	Landing rate on exposed area (at 0.25 mg/cm^2) (Aedes albopictus [1])	Landing rate (at 0.5 mg/cm^2) (Aedes albopictus [2]; [5])	Viscosity (at 23° C.) [3]	Surface tension (at 25° C.) [4]	Landing rate (at 0.25 mg/cm^2) (Aedes albopictus [2]; [6])	effective amount (pests)	Landing rate (at 0.5 mg/cm^2) (Aedes albopictus [2]; coverage 0.5 mg/cm^2 on frosted glass-made substrate (Tempax #240) in place of replica skin substrate)
CC(C)=CCC/C(C)=C/CC/C(C)=C/CC/C=C(\C)CC/C=C(\C)CCC=C(C)C [Hydrocarbon oil d3, Squalene]	12%	21%	42 mPa · s	30 mN/m			
CCCCC(CC)C(=O)OCC(C)(C)COC(=O)C(CC)CCCC (centres unmarked) [Ester oil b3, Neopentyl glycol di-2-ethylhexanoate]		12%		28 mN/m			
CCCCCCCCCCCCCCCCOC(C)CC(C)C (centres unmarked) [Ether oil c1, Cetyl-1,3-dimethylbutyl ether]	15%	13%	7 mPa · s	28 mN/m			
Polyglyceryl diisostearate [Ester oil bx1]		21%	1000 mPa · s	27 mN/m			
CC(C)CCCCCCCCCCOC(=O)CCCCCC(C)C [Ester oil b2, Isotridecyl isononanoate]		15%	11 mPa · s	28 mN/m			
CCCCCCCCCCCCCC(=O)OC(C)C [Ester oil b5, Isopropyl myristate]	24%	11%	5 mPa · s	28 mN/m	11%		
CCCCCCCCCCC(CO)CCCCCCCC (centres unmarked) [Higher alcohol e1, 2-Octyl dodecanol]			74 mPa · s	29 mN/m	16%		
CCCCCCCCCC(=O)OCC(C)(C)COC(=O)CCCCCCCCC [Ester oil b6, Neopentyl glycol dicaprate]		20%	15 mPa · s	28 mN/m			
OCC(O)CO [Polyhydric alcohol fx2, Glycerin, reference compound]	75%			65 mN/m			
CCC(C)OC(=O)N1CCCCC1CCO (centres unmarked) [Icaridin]						≥ 5 % by mass	
OCCCO [Polyhydric alcohol fx1, 1,3-Propanediol, reference compound]			53 mPa · s	48 mN/m			39%
CCN(CC)C(=O)c1cccc(C)c1 [DEET, N,N-diethyl-m-toluamide]						≥ 4 % by mass	
CC(C)CCCCCCOC(=O)CCCCCC(C)C [Ester oil b1, Isononyl isononanoate]		22%	6 mPa · s	25 mN/m			
CC(C)=CCCC(C)CCO (centres unmarked) [citronellol]						≥ 10 % by mass	
CCCCCCCCCCCCCCCC(=O)OC(C)C [Ester oil b4, Isopropyl palmitate]		19%	7 mPa · s	27 mN/m			
